From PubChem BioAssay (NCI) come the findings set out here.

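Cultured in 96-well plates, cells were exposed to test compound for 48 hours across five concentrations. Abbreviation: GI50, concentration required for 50% inhibition of growth. TGI denotes the concentration required for complete inhibition of growth.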 Some results are limits rather than exact numbers.

Among the test systems are HL-60(TB) leukemia; COLO 205 colon; CCRF-CEM leukemia; HOP-62 NSCLC; NCI-H226 lung; NCI-H460 lung; RXF 393 renal; NCI-H23 lung; A498 renal.
Common to all, as to assay: growth of human tumour cells (NCI), 48 h

For `CCc1cccc(C(C)C)c1C1C(=O)C(=O)N(c2nc3ccccc3s2)C(=O)C1=O`, the TGI in the experiment on HL-60(TB) leukemia, in the experiment with COLO 205 colon, with CCRF-CEM leukemia, in the experiment on HOP-62 NSCLC, in the experiment with NCI-H226 lung and in the experiment with NCI-H460 lung was above 100 µM throughout. For the same compound, the TGI with RXF 393 renal, with NCI-H23 lung and in the experiment on A498 renal was above 100 µM in each case.
For the compound `S=C(N/N=C/c1ccccc1)NC1CC(c2ccccc2)Oc2ccccc21` (stereo unspecified), the TGI in the experiment with COLO 205 colon, in the experiment with NCI-H226 lung, in the experiment with NCI-H460 lung and in the experiment on NCI-H23 lung was above 100 µM each time.
Consider `COc1ccc(C2Oc3cc(OC)c(O)cc3[C@@H]2C)cc1` (stereo partly specified), for which the TGI in the experiment with HL-60(TB) leukemia is 47.4 µM; in the experiment on COLO 205 colon, above 100 µM; with CCRF-CEM leukemia it was 44.2 µM; in the experiment with HOP-62 NSCLC, above 100 µM; with NCI-H226 lung, 92.6 µM; with NCI-H460 lung it was above 100 µM. In addition, the TGI with RXF 393 renal, with NCI-H23 lung and in the experiment with A498 renal was above 100 µM throughout.
With `Nc1n[nH]c(=O)c2c1c(Br)cn2C1OC(CO)C(O)C1O` (stereo unspecified), the TGI in the experiment with HL-60(TB) leukemia was 1.03 µM; with COLO 205 colon, 28.1 µM; in the experiment with CCRF-CEM leukemia, 19.2 µM; in the experiment on HOP-62 NSCLC, 98.2 µM; in the experiment on NCI-H226 lung it was 59.3 µM; with NCI-H460 lung it was above 100 µM. The TGI was 10.3 µM in the experiment on RXF 393 renal, 25 µM in the experiment on NCI-H23 lung and above 71.2 µM with A498 renal.
As for `CC(=O)/C=C\C(=O)NNS(=O)(=O)c1ccc(C)cc1`, the TGI in the experiment with HL-60(TB) leukemia, in the experiment on COLO 205 colon, in the experiment with CCRF-CEM leukemia, in the experiment on HOP-62 NSCLC, with NCI-H226 lung and in the experiment with NCI-H460 lung was above 100 µM each time. For the same compound, the TGI with RXF 393 renal, in the experiment with NCI-H23 lung and with A498 renal was above 100 µM in each case.
Consider `CC(=O)OC12CCCCC1C1(CCCC1)NC2=O` (stereo unspecified), for which the TGI with HL-60(TB) leukemia, with CCRF-CEM leukemia, in the experiment with HOP-62 NSCLC, with NCI-H226 lung, in the experiment with NCI-H460 lung and in the experiment on RXF 393 renal was above 100 µM throughout. Besides, the TGI in the experiment with NCI-H23 lung and in the experiment with A498 renal was above 100 µM throughout.
As for `CC/C(=C(\c1ccccc1)c1ccc(OCC[N+](C)(C)C)cc1)c1ccccc1`, the TGI in the experiment on HL-60(TB) leukemia worked out at 6.13 µM; with COLO 205 colon it was 20.4 µM; in the experiment with CCRF-CEM leukemia, 26.1 µM; in the experiment with HOP-62 NSCLC, 56.5 µM; in the experiment with NCI-H226 lung, 26.7 µM; in the experiment with NCI-H460 lung, 37.4 µM. For the same compound, the TGI in the experiment with RXF 393 renal was determined as 36.9 µM; with A498 renal it was 40.6 µM.
For `COC(=O)c1c(OC(=O)c2ccccc2)noc1CC(=O)OC1C=CCCC1` (stereo unspecified), the TGI in the experiment on HL-60(TB) leukemia, in the experiment on COLO 205 colon, in the experiment on CCRF-CEM leukemia, in the experiment with HOP-62 NSCLC, in the experiment on NCI-H226 lung and in the experiment on NCI-H460 lung was above 100 µM each time. Besides, the TGI in the experiment with RXF 393 renal and in the experiment on A498 renal was above 100 µM throughout.
Consider `C[N+](C)(C)CC(=O)N/N=C(\C(=O)Nc1ccc(Cl)cc1)C1C(=O)N(c2ccccc2)N=C1N` (stereo unspecified), for which the TGI in the experiment on HL-60(TB) leukemia, in the experiment on COLO 205 colon, in the experiment with CCRF-CEM leukemia, in the experiment on HOP-62 NSCLC, with NCI-H460 lung and in the experiment with RXF 393 renal was above 100 µM each time. Besides, the TGI in the experiment on NCI-H23 lung and in the experiment with A498 renal was above 100 µM each time.
Regarding `COc1ccccc1C1C(Cl)C(=O)N1NC(=O)Cc1ccccc1` (stereo unspecified), the TGI in the experiment on HL-60(TB) leukemia, in the experiment with COLO 205 colon, in the experiment with CCRF-CEM leukemia, in the experiment on HOP-62 NSCLC, with NCI-H226 lung and with NCI-H460 lung was above 100 µM each time. Also, the TGI in the experiment with RXF 393 renal and with NCI-H23 lung was above 100 µM each time.
Take `O=[N+]([O-])c1ccc(-c2ccc(C3=Nn4c(nnc4-c4ccc(Cl)cc4)SC3)o2)cc1`: the TGI in the experiment with HL-60(TB) leukemia is above 100 µM; in the experiment on COLO 205 colon it was above 100 µM; in the experiment with CCRF-CEM leukemia it was above 100 µM; with HOP-62 NSCLC it was above 76.3 µM; in the experiment on NCI-H226 lung it was above 100 µM; in the experiment on NCI-H460 lung, above 100 µM. Moreover, the TGI in the experiment on NCI-H23 lung was above 85.9 µM; in the experiment with A498 renal, above 100 µM.
For `O=S(O)CCCSSCCCCSSCCCS(=O)O`, the TGI in the experiment on COLO 205 colon, with CCRF-CEM leukemia, in the experiment with HOP-62 NSCLC, in the experiment on NCI-H460 lung, in the experiment on RXF 393 renal and in the experiment with NCI-H23 lung was above 100 µM in each case. Moreover, the TGI with A498 renal is above 100 µM.
As for `Cc1cn2cc(-c3ccncc3)nc2s1`, the TGI in the experiment on HL-60(TB) leukemia is above 41.6 µM; in the experiment on COLO 205 colon it was above 100 µM; in the experiment with CCRF-CEM leukemia, above 78.1 µM; in the experiment on HOP-62 NSCLC it was above 100 µM; with NCI-H226 lung, above 100 µM; in the experiment with NCI-H460 lung, above 100 µM. Besides, the TGI in the experiment on NCI-H23 lung and in the experiment with A498 renal was above 100 µM throughout.
Turning to `COc1cc(/C=C/C(=O)C(C)(C)C)cc(OC)c1OC`, the TGI was 53 µM with HL-60(TB) leukemia; above 100 µM with COLO 205 colon; above 100 µM with CCRF-CEM leukemia; above 100 µM in the experiment on HOP-62 NSCLC; 97.9 µM in the experiment with NCI-H226 lung; 67.4 µM with NCI-H460 lung. The TGI in the experiment on RXF 393 renal is 79.1 µM; in the experiment with NCI-H23 lung, 94.4 µM.
As to `CC(C)CCC[C@@H](C)[C@H]1CC[C@H]2[C@@H]3CC=C4CC(OCCCCN(O)CCCSC5OC(CO)C(O)C(O)C5O)CC[C@]4(C)[C@H]3CC[C@]12C` (stereo partly specified), the TGI in the experiment with HL-60(TB) leukemia is above 100 µM; in the experiment on COLO 205 colon, 47.3 µM; with CCRF-CEM leukemia, 72 µM; in the experiment with HOP-62 NSCLC it was above 100 µM; in the experiment with NCI-H460 lung, above 100 µM; with RXF 393 renal, above 100 µM. Besides, the TGI with NCI-H23 lung and in the experiment with A498 renal was above 100 µM in each case.
On to `O=c1c2ccccc2nc(-c2ccccc2Cl)n1NC1OC(CO)C(O)C(O)C1O` (stereo unspecified), for which the TGI in the experiment with HL-60(TB) leukemia, in the experiment with COLO 205 colon, in the experiment on CCRF-CEM leukemia, in the experiment with HOP-62 NSCLC, with NCI-H226 lung and in the experiment on NCI-H460 lung was above 100 µM each time. Besides, the TGI in the experiment on NCI-H23 lung and in the experiment with A498 renal was above 100 µM in each case.
As to `Cc1nc2c(=O)n(C)c(=O)nc-2n(-c2ccc(Cl)cc2)c1C`, the TGI in the experiment with HL-60(TB) leukemia, with COLO 205 colon, with CCRF-CEM leukemia, in the experiment on HOP-62 NSCLC, in the experiment with NCI-H226 lung and in the experiment on NCI-H460 lung was above 100 µM throughout. Also, the TGI in the experiment with NCI-H23 lung and in the experiment on A498 renal was above 100 µM in each case.
Take `CC1CCCC2(O1)OC1CC(=O)OC1C1=C2C(=O)c2ccccc2C1=O` (stereo unspecified): the TGI with HL-60(TB) leukemia came out at 3.48 µM; in the experiment with COLO 205 colon it was 5.19 µM; in the experiment with HOP-62 NSCLC, 30.2 µM; with NCI-H226 lung, 4.51 µM; with NCI-H460 lung it was 67.2 µM; with RXF 393 renal it was 4.14 µM. The TGI in the experiment with NCI-H23 lung came to 19.7 µM; with A498 renal it was 33.8 µM.
With `O=C(Nc1cccc(Cl)c1)c1cc2cc(N=Nc3ccc(Br)cc3)ccc2oc1=O`, the TGI with COLO 205 colon was above 100 µM; with HOP-62 NSCLC it was above 100 µM; with NCI-H460 lung, above 100 µM; in the experiment with RXF 393 renal, above 100 µM; with NCI-H23 lung it was 64.3 µM; in the experiment with A498 renal, above 100 µM.
Consider `O=C1c2ccccc2CC1C1(O)C(=O)Nc2c(Cl)cc(Cl)cc21` (stereo unspecified), for which the TGI in the experiment with HL-60(TB) leukemia was 96.4 µM; in the experiment on COLO 205 colon it was above 100 µM; in the experiment with CCRF-CEM leukemia, above 100 µM; with HOP-62 NSCLC, above 100 µM; with NCI-H226 lung, above 100 µM; with NCI-H460 lung, above 100 µM. In addition, the TGI in the experiment with RXF 393 renal is 85.8 µM; in the experiment on NCI-H23 lung, above 100 µM.
For `COc1ccc(/C=C(\NC(=O)c2ccccc2)c2nc3ccccc3[nH]2)cc1`, the TGI in the experiment on COLO 205 colon was 75.8 µM; with CCRF-CEM leukemia, above 100 µM; in the experiment on HOP-62 NSCLC, above 100 µM; with NCI-H226 lung, above 100 µM; with NCI-H460 lung, above 100 µM; in the experiment with NCI-H23 lung, 56.1 µM. The compound further displayed a TGI in the experiment with A498 renal above 100 µM.
On to `Cc1ccc(S(=O)(=O)NC2(C=O)CCC(C(C)(C)C)CC2)cc1` (stereo unspecified), for which the TGI in the experiment on HL-60(TB) leukemia was 42.9 µM; in the experiment on COLO 205 colon, 73.3 µM; in the experiment on HOP-62 NSCLC, above 100 µM; in the experiment on NCI-H226 lung it was above 100 µM; with NCI-H460 lung it was above 100 µM; in the experiment on RXF 393 renal, above 100 µM. In addition, the TGI in the experiment on NCI-H23 lung is 85.6 µM; with A498 renal it was above 100 µM.
With `COCC(O)CN1C(N)=NC(O)C1O` (stereo unspecified), the TGI in the experiment on HL-60(TB) leukemia, in the experiment with COLO 205 colon, in the experiment on HOP-62 NSCLC, in the experiment with NCI-H226 lung, with NCI-H460 lung and with RXF 393 renal was above 100 µM each time. The compound also came in with a TGI in the experiment with NCI-H23 lung above 100 µM.
Turning to `Cc1cc(N2CCOCC2)nc(N(CCNc2ccnc3cc(Cl)ccc23)Cc2cccs2)n1`, the GI50 was 1.95 µM in the experiment with HL-60(TB) leukemia; 1.62 µM in the experiment with COLO 205 colon; 2.02 µM with CCRF-CEM leukemia; 2.44 µM in the experiment on HOP-62 NSCLC; 1.74 µM in the experiment on RXF 393 renal; 3 µM in the experiment with NCI-H23 lung. The TGI in the experiment on HL-60(TB) leukemia was 3.83 µM; in the experiment with COLO 205 colon, 3.25 µM; in the experiment with CCRF-CEM leukemia it was 6.1 µM; in the experiment on HOP-62 NSCLC, 6.52 µM; in the experiment on RXF 393 renal, 3.47 µM; with NCI-H23 lung, above 100 µM.
